From PMC4669708 (Cell Death & Disease, 2015) come the findings set out here.

Common to all, as to assay: c-ponatinib pulldown LC-MS/MS
Common to all, as to assay type: binding

For one test, the target named is UNC119 (Homo sapiens, UniProt Q13432). How it is done: (§1) Drug-affinity matrices were prepared as described previously.[51] In brief, 25 nmol of c-ponatinib were immobilized on 50 μl NHS-activated Sepharose 4 Fast Flow beads (GE Healthcare Bio-Sciences AB, Uppsala, Sweden). 10 mg whole cell lysate was used as protein input per replicate. Affinity chromatography and elution were performed in duplicate. After elution, the enriched proteins were reduced with dithiothreitol (DTT) and cysteine residues were alkylated by incubation with iodoacetamide. The samples were digested with modified porcine trypsin (Promega). Five percent of the digested eluates were purified and concentrated by C18 reversed-phase material. Subsequently, samples were analyzed in duplicates by gel-free one-dimensional LCMS.
(§2) Precursor and MS/MS peaks were extracted from the RAW files and saved in the MGF format using msconvert tool (ProteoWizard Library v2.1.2708, www.proteowizard.sourceforge.net) for subsequent protein identification. An initial database search was performed with broader mass tolerance and conservative score threshold to re-calibrate the mass lists for optimal final protein identification. For the initial protein database search, Mascot (www.matrixscience.com, v2.3.02) was used. Error tolerances on the precursor and fragment ions were ±10 p.p.m. and ±0.6 Da, respectively, and the database search limited to fully-tryptic peptides with maximum one missed cleavage, carbamidomethyl cysteine and methionine oxidation set as fixed and variable modifications, respectively. The Mascot peptide ion score threshold was set to 30, and at least three peptide identifications per protein were required. Searches were performed against the human UniProtKB/SwissProt database (www.uniprot.org release 2013.01) including all protein isoforms. The initial peptide identifications were used to deduce independent linear transformations for precursor and fragment masses that would minimize the mean square deviation of measured masses from theoretical. Re-calibrated mass list files were searched against the same human protein database by a combination of Mascot and Phenyx (GeneBio SA, Geneva, Switzerland; version 2.5.14) search engines using narrower mass tolerances (±4 p.p.m. and ±0.3 Da). One missed tryptic cleavage site was allowed. Carbamidomethyl cysteine was set as a fixed modification and oxidized methionine was set as a variable modification. To validate the proteins, Mascot and Phenyx output files were processed by internally developed parsers. Proteins with ≥2 unique peptides above a score T1, or with a single peptide above a score T2 were selected as unambiguous identifications. Additional peptides for these validated proteins with score >T3 were also accepted. For Mascot searches, the following thresholds were used: T1=14, T2=40 and T3=10; Phenyx thresholds were set to 4.2, 4.75 and 3.5, respectively (P-value<10^−3). The validated proteins retrieved by the two algorithms were merged, any spectral conflicts discarded and grouped according to shared peptides. A false discovery rate of <1% for protein identifications and <0.1% for peptides (including the ones exported with lower scores) was determined by applying the same procedure against a database of reversed protein sequences. […] In addition to Mascot protein scores that were proposed as an estimate of protein abundance by the original algorithm, the modified version also included Phenyx protein scores and spectral counts. The algorithm first estimated three measure-specific P-values for each putative interaction, and, in contrast to,[69] P-value calculation utilized the quantiles of the measurements rather than the original data. The Fisher's method was used to combine the three resulting P-values into a single P-value for drug–protein interaction specificity. We have also correlated interaction P-values with the magnitude of competition effect represented by the fold reduction of spectral counts on free compound competition. […]

A further test deals with T1, NAP1L1 (Homo sapiens, UniProt P55209).
T1 sequence (P55209 1-391): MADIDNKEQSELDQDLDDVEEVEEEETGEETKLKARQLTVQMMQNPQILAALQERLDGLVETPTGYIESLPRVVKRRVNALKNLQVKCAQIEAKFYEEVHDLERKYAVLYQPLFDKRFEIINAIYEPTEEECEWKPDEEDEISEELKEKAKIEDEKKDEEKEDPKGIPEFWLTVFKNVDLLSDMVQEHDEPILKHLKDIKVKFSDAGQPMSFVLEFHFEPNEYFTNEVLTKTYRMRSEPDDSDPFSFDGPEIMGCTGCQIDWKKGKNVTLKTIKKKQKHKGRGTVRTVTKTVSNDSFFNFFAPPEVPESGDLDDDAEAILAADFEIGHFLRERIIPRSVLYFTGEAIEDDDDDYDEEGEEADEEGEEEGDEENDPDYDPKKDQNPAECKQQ
How it is done:
as §1, §2

The target of the next test is MAPK11 (Homo sapiens, UniProt Q15759). The method, then: as §1, §2
The next test concerns the target MAP4K1 (Homo sapiens, UniProt Q92918). How it is done:
as §1, §2

In the next test the target is T2, MLKL (Homo sapiens, UniProt Q8NB16).
T2 sequence (Q8NB16 1-471): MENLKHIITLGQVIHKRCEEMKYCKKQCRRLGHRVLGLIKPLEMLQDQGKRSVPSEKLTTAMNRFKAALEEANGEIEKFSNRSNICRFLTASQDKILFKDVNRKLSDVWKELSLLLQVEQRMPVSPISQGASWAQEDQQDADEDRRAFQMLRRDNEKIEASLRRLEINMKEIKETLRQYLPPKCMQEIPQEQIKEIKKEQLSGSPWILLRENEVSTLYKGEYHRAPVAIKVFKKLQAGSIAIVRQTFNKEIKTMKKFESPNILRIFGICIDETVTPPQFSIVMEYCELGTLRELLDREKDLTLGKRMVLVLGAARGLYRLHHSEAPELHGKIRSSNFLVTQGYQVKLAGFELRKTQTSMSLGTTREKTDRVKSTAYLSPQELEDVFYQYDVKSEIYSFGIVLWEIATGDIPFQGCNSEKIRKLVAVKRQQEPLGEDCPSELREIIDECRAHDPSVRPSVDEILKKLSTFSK
The method, then:
as §1, §2

A further test has as its target T3, YWHAB (Homo sapiens, UniProt P31946).
T3 sequence (P31946 1-246): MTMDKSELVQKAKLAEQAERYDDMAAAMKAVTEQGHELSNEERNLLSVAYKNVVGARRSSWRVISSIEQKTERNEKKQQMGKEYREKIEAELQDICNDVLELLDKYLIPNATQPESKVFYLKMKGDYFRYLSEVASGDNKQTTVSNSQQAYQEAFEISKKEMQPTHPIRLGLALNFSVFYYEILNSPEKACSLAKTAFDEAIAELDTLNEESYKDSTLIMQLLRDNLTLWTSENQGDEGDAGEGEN
How it is done:
as §1, §2

Chain of MAPK11 (Q15759 whole entry): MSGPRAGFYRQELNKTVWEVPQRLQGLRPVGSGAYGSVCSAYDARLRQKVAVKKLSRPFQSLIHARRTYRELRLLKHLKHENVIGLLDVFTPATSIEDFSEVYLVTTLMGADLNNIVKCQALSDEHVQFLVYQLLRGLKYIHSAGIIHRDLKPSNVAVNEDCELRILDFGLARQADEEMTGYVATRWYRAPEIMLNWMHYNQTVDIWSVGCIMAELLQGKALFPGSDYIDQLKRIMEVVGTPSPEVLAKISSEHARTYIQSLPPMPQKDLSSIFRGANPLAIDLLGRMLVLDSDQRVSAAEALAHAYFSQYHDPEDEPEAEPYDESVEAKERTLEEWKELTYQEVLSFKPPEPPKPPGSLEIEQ
Chain of MAP4K1 (Q92918 whole entry): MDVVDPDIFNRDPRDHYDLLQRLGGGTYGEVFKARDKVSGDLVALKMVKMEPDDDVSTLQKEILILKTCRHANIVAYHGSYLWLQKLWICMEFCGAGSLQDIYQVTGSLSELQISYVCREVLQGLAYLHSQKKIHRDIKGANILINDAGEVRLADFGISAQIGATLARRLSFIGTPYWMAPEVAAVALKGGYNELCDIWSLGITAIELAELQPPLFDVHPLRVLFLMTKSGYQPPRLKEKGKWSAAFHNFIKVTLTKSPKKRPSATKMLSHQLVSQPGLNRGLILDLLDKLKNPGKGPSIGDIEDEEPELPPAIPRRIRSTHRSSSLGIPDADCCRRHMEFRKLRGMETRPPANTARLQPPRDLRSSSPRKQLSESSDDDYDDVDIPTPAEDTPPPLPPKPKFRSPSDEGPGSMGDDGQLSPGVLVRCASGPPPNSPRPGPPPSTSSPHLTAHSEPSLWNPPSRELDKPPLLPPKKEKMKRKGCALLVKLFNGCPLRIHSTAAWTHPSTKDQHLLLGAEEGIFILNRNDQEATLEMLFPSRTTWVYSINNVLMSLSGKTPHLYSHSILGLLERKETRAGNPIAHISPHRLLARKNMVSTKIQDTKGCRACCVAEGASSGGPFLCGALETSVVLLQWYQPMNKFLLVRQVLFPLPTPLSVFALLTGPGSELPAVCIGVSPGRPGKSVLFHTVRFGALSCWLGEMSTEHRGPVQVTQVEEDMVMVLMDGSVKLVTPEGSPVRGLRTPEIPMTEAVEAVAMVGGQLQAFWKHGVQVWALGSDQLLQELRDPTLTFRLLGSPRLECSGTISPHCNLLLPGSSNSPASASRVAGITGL

With `Cc1ccc(C(=O)Nc2ccc(CN3CCN(CCCN)CC3)c(C(F)(F)F)c2)cc1C#Cc1cnc2cccnn12` [c-ponatinib], the “Av. SC comp.” value is reported as 0 at UNC119 (+ free ponatinib); 1.25 on NAP1L1 (+ free ponatinib); 0 on MAPK11 (+ free ponatinib); 2.5 on MAP4K1 (+ free ponatinib); 0 on MLKL (+ free ponatinib); 1 at YWHAB (+ free ponatinib). Besides, the “Total SC comp.” value on UNC119 (+ free ponatinib) is 0; on NAP1L1 (+ free ponatinib), 5; on MAPK11 (+ free ponatinib) it was 0; on MAP4K1 (+ free ponatinib), 10; on MLKL (+ free ponatinib), 0; at YWHAB (+ free ponatinib), 4. Moreover, the “Av. SC” value is 20.5 on UNC119 (no competitor); 2 on NAP1L1 (no competitor); 3 at MAPK11 (no competitor); 46.75 on MAP4K1 (no competitor); 5 at MLKL (no competitor); 7 on YWHAB (no competitor). Moreover, the “Total SC” value at UNC119 (no competitor) came to 82; at NAP1L1 (no competitor) it was 8; at MAPK11 (no competitor), 12; on MAP4K1 (no competitor), 187; at MLKL (no competitor), 20; at YWHAB (no competitor), 28.
